Measured values: US20240398812A1 (Caraway Therapeutics, Inc., priority 2021, published 2024)

Columns and labels:
human TRPML1 = human TRPML1 (Homo sapiens, UniProt Q9GZU1); assay: Fluorescent TRPML1 assay (Fluo4-AM calcium fluorescence, HEK-293 Trex cells); assay type: cell-based
Protocol: (§1) HEK-293 Trex cells were stably transfected with a construct consisting of the human coding sequence for TRPML1 cloned into the tet-inducible plasmid pCDNA5 T/O. Mutations were introduced into the TRPML1 sequence to facilitate expression on the cell surface (Silvia Vergarajauregui, Rosa Puertollano Traffic. 2006 March; 7 (3): 337-353). Briefly, the cells are cultured in 150 mm round tissue culture dishes containing 20 mL of media. The day before the assay the cells are rinsed with DPBS —Ca—Mg and then treated briefly with Trypsin-EDTA. The Trypsin-EDTA is diluted with growth media, and cells are counted. 38×10^6 cells are re-plated into 150 mm round tissue culture dishes in media containing 0.5 ug/mL doxycycline to induce expression of hTRPML1.
(§2) The day of the experiment cells are lifted from the plates as above and collected by centrifugation. The cells are then suspended in dye loading buffer consisting of Ringer's solution supplemented with 0.1% Pluronic Acid and 1 micromolar Fluo4-AM dye. Cells are loaded for ˜60 minutes in the dark with occasional mixing. The cells are collected by centrifugation, the loading media aspirated, and the cells resuspended in 25 mL Ringer's solution and incubated ˜60 minutes in the dark. The cells are again collected by centrifugation, rinsed in Ringer's Solution and resuspended to 0.2×10^6 cells/mL in modified Ringer's solution containing 10 mM calcium.
(§3) Compounds are dissolved to a concentration of 10 millimolar with DMSO. Compound plates are created by dispensing compounds into 384 well black wall clear bottom plates (Greiner 781091). Positive and negative controls are included on each plate. Typically, different amounts of each compound are tested ranging from 100 nanoMoles (20 micromolar final concentration) decreasing in half-log steps to 31 picoMoles (6 nanomolar final concentration). Each concentration is typically tested in triplicate.
(§4) 50 microliters of dye-loaded cells are dispensed into each well of the compound assay plate created above. The fluorescence in each well is then determined with an excitation wavelength of 480 nm and an emission wavelength of 540 nm using either a Molecular Devices SpectraMax multimode plate reader or a Hamamatsu FDSS/uCell plate imager.
(§5) The resulting fluorescence for each well is exported as an ascii file and loaded into our LIMS for analysis. The percent activity of each compound at each concentration is determined by comparison to the positive and negative control wells included in each plate.
(§6) EC50 values were calculated using a non-linear regression of Prism. In the table, “A” indicates an EC50 of less than 100 nM, “B” indicates an EC50 range from 100 nM to 500 nM; “C” indicates an EC50 range from 500 nM to 2 μM; and “D” indicates an EC50 greater than 2 μM.

TRPML3 = biological target: T1, TRPML3 (Homo sapiens, UniProt Q8TDD5); assay: Fluorescent TRPML3 assay (as for TRPML1); assay type: cell-based
T1 construct: expressed in transfected cells
T1 sequence (Q8TDD5 1-553): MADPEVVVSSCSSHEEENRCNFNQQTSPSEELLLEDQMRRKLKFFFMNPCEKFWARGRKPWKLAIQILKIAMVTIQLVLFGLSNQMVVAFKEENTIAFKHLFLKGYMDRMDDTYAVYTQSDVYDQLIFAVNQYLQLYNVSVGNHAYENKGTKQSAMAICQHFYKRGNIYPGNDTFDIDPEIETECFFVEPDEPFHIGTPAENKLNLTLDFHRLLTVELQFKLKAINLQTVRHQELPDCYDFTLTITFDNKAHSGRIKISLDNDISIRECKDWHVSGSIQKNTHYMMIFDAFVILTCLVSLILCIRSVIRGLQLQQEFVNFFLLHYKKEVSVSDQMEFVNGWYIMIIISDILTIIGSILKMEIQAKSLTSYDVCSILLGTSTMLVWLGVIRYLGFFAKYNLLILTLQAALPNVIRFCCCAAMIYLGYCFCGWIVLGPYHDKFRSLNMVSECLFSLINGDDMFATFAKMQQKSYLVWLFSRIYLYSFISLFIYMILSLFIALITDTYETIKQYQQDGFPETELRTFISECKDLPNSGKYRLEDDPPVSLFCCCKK
Protocol: as §1, §2, §3, §4, §5
Assays for TRPML2 and TRPML3 were performed as above for TRPML1, by substituting the appropriate TRPML2 or TRPML3 subtype for the TRPML1.
as §6

human TRPML1, sequence (Q9GZU1 whole entry L15A/L16A/L577A/L578A, form open): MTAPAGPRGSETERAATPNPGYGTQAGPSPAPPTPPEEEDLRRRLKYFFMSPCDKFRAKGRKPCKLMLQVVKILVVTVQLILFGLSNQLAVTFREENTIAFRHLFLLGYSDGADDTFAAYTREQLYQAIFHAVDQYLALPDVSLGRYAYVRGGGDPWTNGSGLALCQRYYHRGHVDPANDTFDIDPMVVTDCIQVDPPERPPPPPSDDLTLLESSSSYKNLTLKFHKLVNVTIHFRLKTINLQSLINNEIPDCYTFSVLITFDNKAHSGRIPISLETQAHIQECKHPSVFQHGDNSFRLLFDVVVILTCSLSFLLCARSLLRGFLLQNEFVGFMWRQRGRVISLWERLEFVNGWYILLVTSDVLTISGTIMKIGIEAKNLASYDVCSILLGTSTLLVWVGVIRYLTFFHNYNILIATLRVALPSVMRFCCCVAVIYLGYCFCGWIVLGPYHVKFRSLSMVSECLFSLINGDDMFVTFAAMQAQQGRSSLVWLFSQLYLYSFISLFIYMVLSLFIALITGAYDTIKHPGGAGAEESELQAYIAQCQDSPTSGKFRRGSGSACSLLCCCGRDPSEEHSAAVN

Row | SMILES | EC50 (human TRPML1; Table 3, compounds 201-283) [nM] | EC50 (TRPML3; Table 3, compounds 201-283) [nM] | EC50 (human TRPML1; Table 3, compounds 101-177) [nM] | EC50 (TRPML3; Table 3, compounds 101-177) [nM]
1 | CC(C)C(=O)N1C[C@H](C)N(c2ncnc3c(-c4cc(C#N)ccn4)cn(-c4ccccc4F)c23)C[C@H]1C [Compound 213, 2-(5-(2-fluorophenyl)-4-((2S,5R)-4-isobutyryl-2,5-dimethylpiperazin-1-yl)-5H-pyrrolo [3,2-d]pyrimidin-7-yl)isonicotinonitrile] | < 100 | < 100 |  | 
2 | CC(C)C(=O)N1CCN(c2ncnc3c2c(-c2ccccn2)cn3-c2cc(C#N)ccn2)[C@@H](C)C1 [Compound 116, (S)-2-(4-(4-isobutyryl-2-methylpiperazin-1-yl)-5-(pyridin-2-yl)-7H-pyrrolo[2,3-d]pyrimidin-7-yl)isonicotinonitrile] |  |  | 500 to 2000 | 500 to 2000
3 | C[C@@H]1CN(c2ncnc3c2c(-c2ccccc2F)cn3-c2cc(C#N)ccn2)CCN1C(=O)C1CC1 [Compound 111, (R)-2-(4-(4-(cyclopropanecarbonyl)-3-methylpiperazin-1-yl)-5-(2-fluorophenyl)-7H-pyrrolo[2,3-d]pyrimidin-7-yl)isonicotinonitrile] |  |  | < 100 | 
4 | CC(C)C(=O)N1CCN(c2ncnc3c2c(-c2ccccc2F)cn3-c2ncc(C#N)s2)[C@@H](C)C1 [Compound 142, (S)-2-(5-(2-fluorophenyl)-4-(4-isobutyryl-2-methylpiperazin-1-yl)-7H-pyrrolo[2,3-d]pyrimidin-7-yl) thiazole-5-carbonitrile] |  |  | 100 to 500 | 100 to 500
5 | CC(C)C(=O)N1CCN(c2ncnc3c2c(C2CCC2)cn3-c2cc(C#N)ccn2)[C@@H](C)C1 [Compound 150, (S)-2-(5-cyclobutyl-4-(4-isobutyryl-2-methylpiperazin-1-yl)-7H-pyrrolo[2,3-d]pyrimidin-7-yl)isonicotinonitrile] |  |  | 500 to 2000 | 500 to 2000
6 | C[C@H]1CN(C(=O)C(C)(C)F)CCN1c1ncnc2c1c(-c1ccccc1F)cn2-c1cc(C#N)ccn1 [Compound 125, (S)-2-(4-(4-(2-fluoro-2-methylpropanoyl)-2-methylpiperazin-1-yl)-5-(2-fluorophenyl)-7H-pyrrolo[2,3-d]pyrimidin-7-yl)isonicotinonitrile] |  |  | < 100 | < 100
7 | C[C@@H]1CN(c2ncnc3c2c(N2CCC2)cn3-c2cc(F)cc(F)c2)[C@@H](C)CN1C(=O)C(C)(C)C [Compound 217, 1-((2R,5S)-4-(5-(azetidin-1-yl)-7-(3,5 difluorophenyl)-7H-pyrrolo[2,3-d]pyrimidin-4-yl)2,5-dimethylpiperazin-1-yl)-2,2-dimethylpropan-1-one] | < 100 | 100 to 500 |  | 
8 | Cc1nccnc1-c1cn(-c2cccc(Cl)c2)c2ncnc(N3C[C@@H](C)N(C(=O)C(C)C)C[C@@H]3C)c12 [Compound 175, 1-((2R,5S)-4-(7-(3-chlorophenyl)-5-(3-methylpyrazin-2-yl)-7H-pyrrolo[2,3-d]pyrimidin-4-yl)-2,5-dimethylpiperazin-1-yl)-2-methylpropan-1-one] |  |  | 500 to 2000 | > 2000
9 | C[C@H]1CN(C(=O)C2(C)CC2)CCN1c1ncnc2c1c(-c1ccccc1F)cn2-c1cc(C#N)ccn1 [Compound 112, (S)-2-(5-(2-fluorophenyl)-4-(2-methyl-4-(1-methylcyclopropane-1-carbonyl)piperazin-1-yl)-7H-pyrrolo[2,3-d]pyrimidin-7-yl)isonicotinonitrile] |  |  | < 100 | < 100
10 | CC(C)C(=O)N1CCN(c2ncnc3c2c(-c2ccccc2F)cn3-c2cc(C#N)ccn2)CC1 [Compound 106, 2-(5-(2-fluorophenyl)-4-(4-isobutyrylpiperazin-1-yl)-7H-pyrrolo[2,3-d]pyrimidin-7-yl)isonicotinonitrile] |  |  | 100 to 500 | < 100
11 | CC(C)CC(=O)N1CCN(c2ncnc3c2c(C2CC2)cn3-c2cc(C#N)ccn2)[C@@H](C)C1 [Compound 137, (S)-2-(5-cyclopropyl-4-(2-methyl-4-(3-methylbutanoyl)piperazin-1-yl)-7H-pyrrolo[2,3-d]pyrimidin-7-yl)isonicotinonitrile] |  |  | < 100 | > 2000
12 | CC(C)C(=O)N1C[C@H](C)N(c2ncnc3c2c(N2CCC2)cn3-c2cc(F)cc(F)c2)C[C@H]1C [Compound 218, 1-((2R,5S)-4-(5-(azetidin-1-yl)-7-(3,5-difluorophenyl)-7H-pyrrolo[2,3-d]pyrimidin-4-yl)-2,5-dimethylpiperazin-1-yl)-2-methylpropan-1-one] | 100 to 500 | 500 to 2000 |  | 
13 | CC(C)C(=O)N1C[C@H](C)N(c2ncnc3c2c(-c2ccccc2F)cn3-c2cc(Cl)ccn2)C[C@H]1C [Compound 168, 1-((2R,5S)-4-(7-(4-chloropyridin-2-yl)-5-(2-fluorophenyl)-7H-pyrrolo[2,3-d]pyrimidin-4-yl)-2,5-dimethylpiperazin-1-yl)-2-methylpropan-1-one] |  |  | < 100 | < 100

Now from value to compound:

Row | EC50 (human TRPML1; Table 3, compounds 201-283) [nM] | EC50 (TRPML3; Table 3, compounds 201-283) [nM] | EC50 (human TRPML1; Table 3, compounds 101-177) [nM] | EC50 (TRPML3; Table 3, compounds 101-177) [nM] | SMILES
14 | > 2000 | > 2000 |  |  | CC(C)C(=O)N1C[C@H](C)N(c2ncnc3c2c(C2CCC2)cn3-c2cccc(F)c2)C[C@H]1C [Compound 248, 1-((2R,5S)-4-(5-cyclobutyl-7-(3-fluorophenyl)-7H-pyrrolo[2,3-d]pyrimidin-4-yl)-2,5-dimethylpiperazin-1-yl)-2-methylpropan-1-one]
15 | < 100 | 500 to 2000 |  |  | Cc1cn(-c2cc(F)ccn2)c2ncnc(N3C[C@@H](C)N(C(=O)C(C)(C)C)C[C@@H]3C)c12 [Compound 244, 1-((2R,5S)-4-(7-(4-fluoropyridin-2-yl)-5-methyl-7H-pyrrolo[2,3-d]pyrimidin-4-yl)-2,5-dimethylpiperazin-1-yl)-2,2-dimethylpropan-1-one]
16 | < 100 | 500 to 2000 |  |  | CC(C)C(=O)N1C[C@H](C)N(c2ncnc3c2c(N2CCC2)cn3-c2cccc(Cl)c2)C[C@H]1C [Compound 221, 1-((2R,5S)-4-(5-(azetidin-1-yl)-7-(3-chlorophenyl)-7H-pyrrolo[2,3-d]pyrimidin-4-yl)-2,5-dimethylpiperazin-1-yl)-2-methylpropan-1-one]
17 | < 100 | 100 to 500 |  |  | C[C@@H]1CN(c2ncnc3c2c(C(F)(F)F)cn3-c2cc(F)cc(F)c2)[C@@H](C)CN1C(=O)C(C)(C)C [Compound 225, 1-((2R,5S)-4-(7-(3,5-difluorophenyl)-5-(trifluoromethyl)-7H-pyrrolo[2,3-d]pyrimidin-4-yl)-2,5-dimethylpiperazin-1-yl)-2,2-dimethylpropan-1-one]
18 | < 100 |  |  |  | CC(C)C(=O)N1C[C@H](C)N(c2ncnc3c2c(-c2ccccc2F)cn3-c2cc(C#N)ccn2)C[C@H]1C (single isomer, unassigned) [Compound 233]
19 | < 100 |  |  |  | CC(C)C(=O)N1C[C@H](C)N(c2ncnc3c2c(-c2ccccc2F)cn3-c2cc(C#N)ccn2)C[C@H]1C (single isomer, unassigned) [Compound 234]
20 | 100 to 500 |  |  |  | CC(C)C(=O)N1C[C@H](C)N(c2ncnc3c2c(-c2ccccc2F)cn3-c2cc(C#N)ccn2)C[C@H]1C (single isomer, unassigned) [Compound 281]
21 | 100 to 500 |  |  |  | CC(C)C(=O)N1C[C@H](C)N(c2ncnc3c2c(C2CCC2)cn3-c2cc(C#N)ccn2)C[C@H]1C [Compound 238, 2-(5-cyclobutyl-4-((2S,5R)-4-isobutyryl-2,5-dimethylpiperazin-1-yl)-7H-pyrrolo[2,3-d]pyrimidin-7-yl)isonicotinonitrile]
